In paper PMC2841147, “The inhaled phosphodiesterase 4 inhibitor GSK256066 reduces allergen challenge responses in asthma” (Respiratory Research, 2010):
Where two headings read alike, the source gives them in different places. Blank lines part the entries; values can stand above or below the molecule they belong to.

Columns and labels:
[1] = system: steroid naive atopic asthmatics; experiment: Safety and tolerability (adverse events); type: in vivo, human; conditions: inhaled 87.5 mcg once per day for 7 days
Protocol: (§1) This was a two centre, double-blind, randomised, placebo controlled, cross-over study. Eligible subjects were randomised to receive GSK256066 87.5 μg or matching placebo using an Accuhaler™ once daily for 7 days - see Fig 1. The washout period was 14 - 21 days between treatment periods. Dosing was performed under supervision at the sites on Day 1 and Day 7. On days 2-6 subjects were instructed to take the study medication at the same time of day, and were required to complete a diary card to document the time that medication was taken. Heart rate, blood pressure, ECGs, FEV1 and exhaled nitric oxide (FeNO) were measured pre-dose on days 1 and 7, and at 1 hr post-dose. On day 7, an inhaled allergen challenge was subsequently performed after the 1 hour post-dose FEV1 and FeNO measurements. Methacholine challenge was then performed at 24 hours post allergen challenge. Adverse events and beta agonist use were monitored throughout the study with the aid of diary cards.

[2] = system: steroid naive atopic asthmatics; experiment: Inhaled allergen challenge (EAR and LAR) after 7 days treatment; type: in vivo, human; conditions: inhaled 87.5 μg once daily for 7 days
Protocol: as §1
Bronchial challenges were performed as we have previously described using a Mefar Dosimeter (Mefar-Bologna). Allergen for skin prick tests (Soluprick SQ, Alk Abelló (UK) Ltd) was stored at 4°C; each subject was assessed for sensitivity to house dust mite, cat, grass pollen, and positive and negative controls. The allergen for inhalation was selected according to the largest skin test wheal (positive >3 mm) and clinical history. Fresh solutions of allergen were made up in 0.9% saline in doubling concentrations from 250 SQ-U/ml to 32 000 SQ-U/ml. At screening, incremental doses of allergen were inhaled until an early asthmatic response (EAR) was observed, defined as a fall in FEV1 of ≥ 20% from the post saline value, on at least one occasion, between 5 and 30 minutes after the final concentration of allergen. The late asthmatic response (LAR) was defined as a fall in FEV1 of ≥ 15% from the post saline value, on at least three occasions, two of which must be consecutive, between 4 and 10 hours after the final concentration of allergen. During the treatment periods, the total dose of allergen required to cause an EAR and LAR was administered as a single bolus dose.
Minimum LAR was derived as the minimum FEV1 value over 4-10 hrs post allergen challenge. Minimum EAR was derived as the minimum FEV1 over 0-2 hrs post allergen challenge. Weighted mean LAR and EAR endpoints were derived by calculating the AUC over the relevant time interval using the linear trapezoidal rule and dividing by the time interval. […] Day 7 FEV1 data (pre-dose and 1 h post-dose) were also analysed using a mixed effects model, adjusting for the fixed effects treatment, period and Day 1 pre-dose FEV1 and the random effect subject. […]

[3] = system: steroid naive atopic asthmatics; experiment: Methacholine challenge 24 hours post allergen challenge; type: in vivo, human
Protocol: as §1, with “cards. […]” for “cards.”
Minimum LAR was derived as the minimum FEV1 value over 4-10 hrs post allergen challenge. […] Day 7 FEV1 data (pre-dose and 1 h post-dose) were also analysed using a mixed effects model, adjusting for the fixed effects treatment, period and Day 1 pre-dose FEV1 and the random effect subject. […] FeNO change from baseline ratio at all time points were analysed following a loge-transformation to compare GSK256066 with placebo. […]

[4] = Plasma pharmacokinetics after inhalation (HPLC/MS/MS); type: in vivo, human; conditions: for Tlast / Tmax: median (range); for AUC(0-t): 87.5 ug
Protocol: On days 1 and 7, blood samples were collected at pre-dose, 10 min, 30 min, 45 min and 1, 2, 3, 4, 6, 8, 10, 11, 12 and 24 hrs post dose for measurement of the levels of GSK256066 in plasma. […] These pharmacokinetic analyses were performed by protein precipitation, followed by HPLC/MS/MS. The lower limit of quantification (LLOQ) for GSK256066 and GSK614917 was 5 pg/mL, with an upper limit of quantification of 2000 pg/mL
Values for the following pharmacokinetic were estimated directly from raw plasma concentration data: maximum plasma concentration (Cmax), time of maximum observed concentration (Tmax), and time of the last observable concentration (Tlast). Area under the plasma concentration-time curve from time zero to Tlast (AUC (0-t)) was estimated for subjects with at least 3 consecutive observable concentration values with the log up/linear down trapezoidal method using Winnonlin professional version 5.2 (Pharsight Corporation, Cary, NC, USA).

[5] = system: steroid naive atopic asthmatics; experiment: Lung function (FEV1) pre-dose and 1 hr post-dose; type: in vivo, human; conditions: for FEV1: mean; for FEV1 adjusted treatment difference GSK256066 vs placebo: adjusted mean (95% confidence intervals)
Protocol: as §1
(§2) Minimum LAR was derived as the minimum FEV1 value over 4-10 hrs post allergen challenge. Minimum EAR was derived as the minimum FEV1 over 0-2 hrs post allergen challenge. Weighted mean LAR and EAR endpoints were derived by calculating the AUC over the relevant time interval using the linear trapezoidal rule and dividing by the time interval. The sample size was based on a power calculation using our previous allergen challenge data; in order to detect a 50% attenuation of the minimum LAR, with 90% power at the two-sided 5% significance level, 23 evaluable were required. Statistical analysis was performed on each of the absolute change from baseline LAR and EAR endpoints to compare GSK256066 with placebo. A mixed effects model was fitted with the factors treatment, period and Day 7 post-saline FEV1 as fixed effects and subject as a random effect. Absolute change from post-saline FEV1 data over planned relative time were obtained from a repeated measures statistical analysis, adjusting for the terms of period, treatment group, period-level post-saline baseline, subject-level post-saline baseline, planned relative time, treatment group by planned relative time interaction and period-level post-saline baseline by planned relative time interaction as fixed effects and subject as a random effect. Day 7 FEV1 data (pre-dose and 1 h post-dose) were also analysed using a mixed effects model, adjusting for the fixed effects treatment, period and Day 1 pre-dose FEV1 and the random effect subject. Statistical analysis was performed on the log2-transformed values of the provocative concentration of methacholine required to produce a 20% reduction in FEV1 (PC20) to compare GSK256066 with placebo. A mixed effects model was fitted with the factors treatment and period treated as fixed effects and subject as a random effect. FeNO change from baseline ratio at all time points were analysed following a loge-transformation to compare GSK256066 with placebo. A mixed effects model was fitted with the fixed effects period, treatment group, subject-level loge-transformed baseline, period-level loge-transformed baseline, planned relative time, treatment group by planned relative time interaction term and period-level loge-transformed baseline by planned relative time interaction term and the random effect subject.

[6] = system: steroid naive atopic asthmatics; experiment: Exhaled nitric oxide (FeNO); type: in vivo, human; conditions: for Exhaled nitric oxide: mean
Protocol: as §1
FeNO was measured using the Ecomedics AG analyser CLD 88 at a flow of 50 ml/s. Three acceptable readings were recorded from each subject and the mean was used for analysis.
as §2, with “Statistical analysis was performed on the log2-transformed values of the provocative concentration of methacholine required to produce a 20% reduction in FEV1 (PC20) to compare GSK256066 with placebo. A mixed effects model was fitted with the factors treatment and period treated as fixed effects and subject as a random effect.” left out, “A mixed effects model was fitted with the fixed effects period, treatment group, subject-level loge-transformed baseline, period-level loge-transformed baseline, planned relative time, treatment group by planned relative time interaction term and period-level loge-transformed baseline by planned relative time interaction term and the random effect subject.” left out

PDE4 = conditions: cited from earlier work
patients with COPD = system: patients with COPD; parameters: method as in PMID 19213793; conditions: inhaled, after 6 weeks of treatment; cited from earlier work
[7] = parameters: method as in PMID 17192499; conditions: cited from earlier work
asthmatic subjects = system: asthmatic subjects; parameters: method as in PMID 16083782; conditions: orally administered; cited from earlier work

Subjects with plasma concentrations above the LLOQ ([4]; Day 1, LLOQ 5 pg/mL): 18 out of 22
Cmax ([4]; Day 1, inhaled 87.5 μg, plasma, geometric mean (CV%), N = 18): 18.3 (68) Pg/mL
Tlast ([4]; Day 1): 3.0 (0.5-6.0) h
Subjects with drug levels below the LLOQ after 4 hrs post dose ([4]; Day 1, of the 22 subjects, LLOQ 5 pg/mL): 18 subjects
Subjects with drug levels below the LLOQ after 4 hrs post dose ([4]; Day 7, LLOQ 5 pg/mL): 10 of the 19
Subjects with levels above the LLOQ after 12 hrs ([4]; Day 7, LLOQ 5 pg/mL): 1 subject
Subjects with plasma concentrations above the LLOQ ([4]; Day 7, LLOQ 5 pg/mL): 17 out of 19
Cmax ([4]; Day 7, inhaled 87.5 μg once daily, plasma, geometric mean (CV%), n = 17): 17.3 (63) Pg/mL
Tlast ([4]; Day 7): 4.0 (1.0-24) h
Tmax ([4]; Day 7): 1.0 (0.17-11.0) h
Tlast range in this study ([4]; days 1 and 7): 0.5 to 24 h
AUC(0-t) ([4]; human, plasma, inhaled or intranasal, Day 1, inhaled 87.5 μg, plasma, geometric mean (CV%), N = 18): 0.0368 ng·h/mL
AUC(0-t) ([4]; human, plasma, inhaled or intranasal, Day 7, inhaled 87.5 μg once daily, plasma, geometric mean (CV%), n = 17): 0.0648 ng·h/mL
Cmax ([4]; human, plasma, inhaled or intranasal, 87.5 μg, on both days 1 and 7, inhaled, read-out: Mean Cmax): < 0.02 ng/mL
Tmax ([4]; human, plasma, inhaled, 87.5 μg, Day 1, read-out: Tmax): 1 h
SMILES: COc1cccc(Nc2c(C(N)=O)cnc3c(C)cc(S(=O)(=O)c4cccc(C(=O)N(C)C)c4)cc23)c1 [GSK256066]
Nausea and/or gastro-intestinal side effects [1]: lack of nausea and/or gastro-intestinal side effects
Tolerability / adverse effects [1]: well tolerated
EAR: inhibition of the fall in weighted mean FEV1 compared to placebo ([2]; 0-2 hrs post allergen, p = 0.014): 57.2%
LAR: attenuation of the fall in weighted mean FEV1 compared to placebo ([2]; 4-10 hrs post allergen, p = 0.005): 34.3%
EAR: inhibition of the fall in minimum FEV1 compared to placebo ([2]; minimum FEV1 0-2 hrs post allergen, p = 0.014): 40.9%
LAR: attenuation of the fall in minimum FEV1 compared to placebo ([2]; minimum FEV1 4-10 hrs post allergen, p = 0.007): 26.2%
Methacholine PC20 doubling dose difference vs placebo, geometric mean (95% CI) [3]: -0.31 (-1.18 to 0.57)
Methacholine PC20 ([3]; after 7 days treatment, placebo 0.39): 0.31 mg/mL
FEV1 ([5]; Day 1 Pre-dose): 3.29 (2.88 to 3.69) L
FEV1 adjusted treatment difference GSK256066 vs placebo ([5]; Day 7 1 hr post-dose): 0.09 (-0.08 to 0.27) L
FEV1 ([5]; Day 7 1 hr post-dose): 3.47 (3.04 to 3.90) L
FEV1 adjusted treatment difference GSK256066 vs placebo ([5]; Day 7 Pre-dose): 0.09 (-0.03 to 0.20) L
FEV1 ([5]; Day 7 Pre-dose): 3.36 (2.94 to 3.79) L
Exhaled nitric oxide ([6]; Day 1 Pre-dose): 39.9 (31.0 to 51.3) ppb
Exhaled nitric oxide adjusted treatment ratio GSK256066 vs placebo ([6]; Day 7 1 hr post-dose, adjusted mean (95% confidence intervals)): 1.03 (0.88 to 1.20)
Exhaled nitric oxide ([6]; Day 7 1 hr post-dose): 36.1 (28.1 to 46.3) ppb
Exhaled nitric oxide ([6]; Day 7 Pre-dose): 34.7 (26.7 to 45.0) ppb
Affinity and binding mode at PDE4 (PDE4): very high affinity, slow- and tight-binding inhibitor
Selectivity for PDE4 over other PDEs such as 1, 2, 3, 5, 6 and 7 (PDE4): highly selective

SMILES: Cc1ccc(O)c(C(=O)N[C@H]2CC[C@@H](NC(=O)c3cc(F)cnc3Oc3ccc(F)c(F)c3)CC2)c1 [UK-500,001]
Effect on FEV1 (patients with COPD): no effect

SMILES: O=C(Nc1c(Cl)c[n+]([O-])cc1Cl)c1ccc(OC(F)F)c(OCC2CC2)c1 [roflumilast N-Oxide]
Plasma levels of the active metabolite compared with roflumilast Cmax ([7]; after oral roflumilast): even higher

SMILES: O=C(Nc1c(Cl)cncc1Cl)c1ccc(OC(F)F)c(OCC2CC2)c1 [roflumilast]
Inhibition of the maximal fall in the EAR (asthmatic subjects): 14%
Inhibition of the maximal fall in the LAR (asthmatic subjects): 33%
Mean Cmax ([7]; administered orally): over 2,000 pg/ml
